The values that follow are results of earlier work, collected in US20090170823A1, “Dosage Regimens and Pharmaceutical Compositions and Packages for Emergency Contraception” (Duramed Pharmaceuticals, Inc., priority 2007, published 2009).

The conditions of this data set: relative to 30 μg ethinyl estradiol; see EP 0 253 607.

For the compound `C[C@]12CC[C@@H]3c4ccc(O)cc4CC[C@H]3[C@@H]1CC[C@@H]2O` [17β-estradiol], the “amount roughly equivalent to 30 μg of ethinyl estradiol” value is on record as ~2,000 μg.
`C#C[C@]1(O)CC[C@H]2[C@@H]3CCc4cc(OC)ccc4[C@H]3CC[C@@]21C` [mestranol]: the amount roughly equivalent to 30 μg of ethinyl estradiol was around 60 µg.
